Measurements from PubChem BioAssay AID1963445 (Molecular Pharmacology Branch, DTP, NCI, 2024).

Tested on: MCF7 complex spheroid growth, % test/control
Test: Anticancer human tumor MCF7 cell line growth inhibition [Asc];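 further: spheroids exposed to compounds for 7 days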;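 on viability, T/C: 100% = DMSO vehicle control wells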
Conditions: for IC50: curve of first compound; for viability, T/C: stronger effect = lower value
In short: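 Complex solid-tumor spheroids incorporating human endothelial and mesenchymal stem cells received single agents or combinations over half-log dilution ranges anchored to clinical Cmax.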

NC1CCC(NC2CC2c2ccccc2)CC1 (centres undefined) + CCN1C(C(=O)NC23CCC(C(=O)O)(CC2)CC3)C(c2cccc(Cl)c2F)C2(C(=O)Nc3cc(Cl)ccc32)C12CCCCC2
IC50 (second compound 0.00949 µM): > 100 nM
IC50 (second compound 0.03 µM): > 100 nM
IC50 (second compound 0.0949 µM): > 100 nM
IC50 (second compound 0.3 µM): < 0.316 nM
IC50 (second compound 0.949 µM): < 0.316 nM
IC50 (second compound 3 µM): < 0.316 nM
viability, T/C (second compound 0.00949 µM, first compound 0.000316 µM): 131%
viability, T/C (second compound 0.00949 µM, first compound 0.001 µM): 116%
viability, T/C (second compound 0.00949 µM, first compound 0.00316 µM): 131%
viability, T/C (second compound 0.00949 µM, first compound 0.01 µM): 154%
viability, T/C (second compound 0.00949 µM, first compound 0.0316 µM): 126%
viability, T/C (second compound 0.00949 µM, first compound 0.1 µM): 127%
viability, T/C (second compound 0.03 µM, first compound 0.000316 µM): 108%
viability, T/C (second compound 0.03 µM, first compound 0.001 µM): 113%
viability, T/C (second compound 0.03 µM, first compound 0.00316 µM): 123%
viability, T/C (second compound 0.03 µM, first compound 0.01 µM): 101%
viability, T/C (second compound 0.03 µM, first compound 0.0316 µM): 107%
viability, T/C (second compound 0.03 µM, first compound 0.1 µM): 74.8%
viability, T/C (second compound 0.0949 µM, first compound 0.000316 µM): 65.9%
viability, T/C (second compound 0.0949 µM, first compound 0.001 µM): 57.9%
viability, T/C (second compound 0.0949 µM, first compound 0.00316 µM): 43.3%
viability, T/C (second compound 0.0949 µM, first compound 0.01 µM): 51.7%
viability, T/C (second compound 0.0949 µM, first compound 0.0316 µM): 58.1%
viability, T/C (second compound 0.0949 µM, first compound 0.1 µM): 56.8%
viability, T/C (second compound 0.3 µM, first compound 0.000316 µM): 39.4%
viability, T/C (second compound 0.3 µM, first compound 0.001 µM): 38.8%
viability, T/C (second compound 0.3 µM, first compound 0.00316 µM): 43.8%
viability, T/C (second compound 0.3 µM, first compound 0.01 µM): 40%
viability, T/C (second compound 0.3 µM, first compound 0.0316 µM): 34.1%
viability, T/C (second compound 0.3 µM, first compound 0.1 µM): 43%
viability, T/C (second compound 0.949 µM, first compound 0.000316 µM): 30.3%
viability, T/C (second compound 0.949 µM, first compound 0.001 µM): 26.9%
viability, T/C (second compound 0.949 µM, first compound 0.00316 µM): 29.1%
viability, T/C (second compound 0.949 µM, first compound 0.01 µM): 25.7%
viability, T/C (second compound 0.949 µM, first compound 0.0316 µM): 29.1%
viability, T/C (second compound 0.949 µM, first compound 0.1 µM): 23.8%
viability, T/C (second compound 3 µM, first compound 0.000316 µM): 18.3%
viability, T/C (second compound 3 µM, first compound 0.001 µM): 18.6%
viability, T/C (second compound 3 µM, first compound 0.00316 µM): 19.9%
viability, T/C (second compound 3 µM, first compound 0.01 µM): 15.5%
viability, T/C (second compound 3 µM, first compound 0.0316 µM): 16.5%
viability, T/C (second compound 3 µM, first compound 0.1 µM): 19.6%

Cc1nc(N2CCC3(CC2)COC(C)C3N)c(CO)nc1Sc1ccnc(N)c1Cl (centres undefined) + Cc1c(S(C)(=O)=O)c(-c2cc(F)cc(N3CCN(c4ccc(NS(=O)(=O)c5ccc(NC(CCN6CCC(C(=O)OCCCP(=O)(O)O)CC6)CSc6ccccc6)c(S(=O)(=O)C(F)(F)F)c5)cc4)CC3)c2)c(-c2ccc(Cl)cc2)n1C(C)C
IC50 (second compound 0.0316 µM): 736 nM
IC50 (second compound 0.1 µM): 787 nM
IC50 (second compound 0.316 µM): 491 nM
IC50 (second compound 1 µM): 534 nM
IC50 (second compound 3.16 µM): 668 nM
IC50 (second compound 10 µM): 789 nM
viability, T/C (second compound 0.0316 µM, first compound 0.00949 µM): 91.3%
viability, T/C (second compound 0.0316 µM, first compound 0.03 µM): 92.1%
viability, T/C (second compound 0.0316 µM, first compound 0.0949 µM): 90%
viability, T/C (second compound 0.0316 µM, first compound 0.3 µM): 88.8%
viability, T/C (second compound 0.0316 µM, first compound 0.949 µM): 39.1%
viability, T/C (second compound 0.0316 µM, first compound 3 µM): 14.7%
viability, T/C (second compound 0.1 µM, first compound 0.00949 µM): 90.6%
viability, T/C (second compound 0.1 µM, first compound 0.03 µM): 79.7%
viability, T/C (second compound 0.1 µM, first compound 0.0949 µM): 73.7%
viability, T/C (second compound 0.1 µM, first compound 0.3 µM): 80%
viability, T/C (second compound 0.1 µM, first compound 0.949 µM): 44.2%
viability, T/C (second compound 0.1 µM, first compound 3 µM): 14.9%
viability, T/C (second compound 0.316 µM, first compound 0.00949 µM): 98.3%
viability, T/C (second compound 0.316 µM, first compound 0.03 µM): 84.2%
viability, T/C (second compound 0.316 µM, first compound 0.0949 µM): 75.2%
viability, T/C (second compound 0.316 µM, first compound 0.3 µM): 72.8%
viability, T/C (second compound 0.316 µM, first compound 0.949 µM): 19.7%
viability, T/C (second compound 0.316 µM, first compound 3 µM): 15.5%
viability, T/C (second compound 1 µM, first compound 0.00949 µM): 80.5%
viability, T/C (second compound 1 µM, first compound 0.03 µM): 84.6%
viability, T/C (second compound 1 µM, first compound 0.0949 µM): 85.7%
viability, T/C (second compound 1 µM, first compound 0.3 µM): 81.2%
viability, T/C (second compound 1 µM, first compound 0.949 µM): 18.9%
viability, T/C (second compound 1 µM, first compound 3 µM): 15.3%
viability, T/C (second compound 3.16 µM, first compound 0.00949 µM): 98.3%
viability, T/C (second compound 3.16 µM, first compound 0.03 µM): 88.4%
viability, T/C (second compound 3.16 µM, first compound 0.0949 µM): 89.5%
viability, T/C (second compound 3.16 µM, first compound 0.3 µM): 80.6%
viability, T/C (second compound 3.16 µM, first compound 0.949 µM): 36.6%
viability, T/C (second compound 3.16 µM, first compound 3 µM): 20.5%
viability, T/C (second compound 10 µM, first compound 0.00949 µM): 247%
viability, T/C (second compound 10 µM, first compound 0.03 µM): 221%
viability, T/C (second compound 10 µM, first compound 0.0949 µM): 202%
viability, T/C (second compound 10 µM, first compound 0.3 µM): 176%
viability, T/C (second compound 10 µM, first compound 0.949 µM): 26%
viability, T/C (second compound 10 µM, first compound 3 µM): 26%
